Assay results from US20080182859A1 (Curis, Inc., priority 2006, published 2008).
Structures can show the parent of a compound that is named as a salt.

What was measured:
Format in all cases: cell-based
sonic hedgehog pathway [1] = test: Human hedgehog reporter assay HEPM-GliLuc (HGL); conditions: HepM human embryonic palatal mesenchymal cells, Gli-luciferase reporter
From the text: Mouse (TM3: mouse Leydig cells; S12: mouse embryonic mesenchymal cells) and human (Daoy: human medulloblastoma cell; HepM: human embryonic palatal mesenchymal cell) cell lines are used to screen small molecules for their ability to modulate the activity of the sonic hedgehog pathway (Table 1, Table 2, and Table 3). Stable hedgehog pathway reporter cell lines are established by specific antibiotic selection following transfection of a reporter plasmid containing a luciferase gene located directly downstream from the gli promoter. Consequently, any observable changes in cellular luciferase activity may be attributed to changes in sonic hedgehog pathway activity in mouse and human cells, respectively, since gli is the major by-product of this pathway. To calculate activity, we generate an eleven point dose curve for each compound using 1:3 dilutions in 96 well assay plates. Each plate tested also contains low and high control to establish maximal pathway activation so to establish/compare a percentage activation of each tested compound (AMAX) on respective plates. Also we calculate EC50 values, or a concentration where the pathway will be exactly 50% activated, for each tested compound to determine potency. In these cell lines, compounds that register >20% AMAX values are considered active.
Stable hedgehog pathway reporter cell lines are established following specific antibiotic selection following transfection of a reporter plasmid In short, typically cells are plated in MicroTiter-plates at 10,000-20,000 cells per well, in growth media (containing 10%-20% FBS). After 48-72 hrs (HGL and DGL respectively) the media in the assay plates is switched to low-serum containing media (0.5% FBS). At that time compounds are added (at 1-5 μM) to the assay plates, in the presence or absence of hedgehog protein (octyl-modified version; 1-5 ng/ml). After another 24 hrs of incubation, the media from the assay plates is discarded and replaced with luciferase assay-mix. Subsequently, plates are incubated at RT for ˜15-30 mins and then read in a luminometer. [note: addition of the Hedgehog protein, although not critical, will sensitize the assay allowing the identification of weak actives].

sonic hedgehog pathway [2] = test: Hedgehog pathway Gli-luciferase reporter assay, TM3 cells; conditions: TM3 mouse Leydig cells
Summary of the method: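 Luminescence read-out of gli-promoter luciferase in stably transfected cells; 11-point 1:3 dose curves, 24 h compound exposure in 0.5% FBS, ± octyl-modified Hh protein 1–5 ng/ml. AMAX as % of plate low/high controls; EC50 from curve; >20% AMAX counted active.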

sonic hedgehog pathway [3] = test: Human hedgehog reporter assay Daoy-GliLuc (DGL); conditions: Daoy human medulloblastoma cells, Gli-luciferase reporter; read-out: Daoy Avg. EC50
Summary of the method: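 Stable Gli-promoter luciferase reporter lines (human HepM, Daoy; mouse S12) plated at 10,000–20,000 cells/well, switched to 0.5% FBS after 48–72 h, then given compound (1–5 μM; 11-point 1:3 dose curves) with or without octyl-modified hedgehog protein (1–5 ng/ml) for 24 h. Luminescence read; AMAX vs plate controls and EC50 derived.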

EC50 (sonic hedgehog pathway [2]) | EC50 (sonic hedgehog pathway [3]) | SMILES | EC50 (sonic hedgehog pathway [1])
< 50 nM | < 50 nM | CCOc1ccc(-c2cccc(C#N)c2)cc1CN(C(=O)c1sc2ccccc2c1Cl)[C@H]1CC[C@@H](NC)CC1 [Compound 328, 3-Chloro-benzo[b]thiophene-2-carboxylic acid (3′-cyano-4-ethoxy-biphenyl-3-ylmethyl)-(4-methylamino-cyclohexyl)-amide hydrochloride] | 50 to 250 nM
< 50 nM | < 50 nM | CN[C@H]1CC[C@@H](N(Cc2cc(-c3ccnc(C)c3)ccc2OC)C(=O)c2sc3c(F)ccc(F)c3c2Cl)CC1 [Compound 345, 3-Chloro-4,7-difluoro-benzo[b]thiophene-2-carboxylic acid [2-methoxy-5-(2-methyl-pyridin-4-yl)-benzyl]-(4-methylamino-cyclohexyl)-amide dihydrochloride] | < 50 nM
< 50 nM | < 50 nM | CN[C@H]1CC[C@@H](N(Cc2cc(-c3ccc(N(C)C=O)cc3)ccc2OC)C(=O)c2sc3cccc(F)c3c2Cl)CC1 [Compound 347, 3-Chloro-4-fluoro-benzo[b]thiophene-2-carboxylic acid [4′-(formyl-methyl-amino)-4-methoxy-biphenyl-3-ylmethyl]-(4-methylamino-cyclohexyl)-amide trifluoroacetate] | < 50 nM
< 50 nM | < 50 nM | CN[C@H]1CC[C@@H](N(Cc2cc(-c3ccc(C(=O)C(F)(F)F)cc3)ccc2OC)C(=O)c2sc3c(F)ccc(F)c3c2Cl)CC1 [Compound 349, 3-Chloro-4,7-difluoro-benzo[b]thiophene-2-carboxylic acid [4-methoxy-4′-(2,2,2-trifluoro-acetyl)-biphenyl-3-ylmethyl]-(4-methylamino-cyclohexyl)-amide trifluoroacetate] | < 50 nM
< 50 nM | < 50 nM | CN[C@H]1CC[C@@H](N(Cc2cc(-c3cc(C)nc(C)c3)ccc2OC)C(=O)c2sc3c(F)ccc(F)c3c2Cl)CC1 [Compound 350, 3-Chloro-4,7-difluoro-benzo[b]thiophene-2-carboxylic acid [5-(2,6-dimethyl-pyridin-4-yl)-2-methoxy-benzyl]-(4-methylamino-cyclohexyl)-amide dihydrochloride] | 50 to 250 nM
< 50 nM | 50 to 250 nM | CN[C@H]1CC[C@@H](N(Cc2cc(-c3cc(C)nc(C)c3)ccc2OC)C(=O)c2sc3cccc(F)c3c2Cl)CC1 [Compound 353, 3-Chloro-4-fluoro-benzo[b]thiophene-2-carboxylic acid [5-(2,6-dimethyl-pyridin-4-yl)-2-methoxy-benzyl]-(4-methylamino-cyclohexyl)-amide dihydrochloride] | 50 to 250 nM
< 50 nM | < 50 nM | CN[C@H]1CC[C@@H](N(Cc2cc(-c3ccnc(N(C)C)c3)ccc2OC)C(=O)c2sc3c(F)ccc(F)c3c2Cl)CC1 [Compound 358, 3-Chloro-4,7-difluoro-benzo[b]thiophene-2-carboxylic acid [5-(2-dimethylamino-pyridin-4-yl)-2-methoxy-benzyl]-(4-methylamino-cyclohexyl)-amide dihydrochloride] | < 50 nM
1000 to 2500 nM | 250 to 1000 nM | CNC1CCC(N(Cc2cc(-c3ccc(N)nc3C)ccc2OC)C(=O)c2sc3ccccc3c2Cl)CC1 (stereo not drawn) [Compound 398, 3-Chloro-benzo[b]thiophene-2-carboxylic acid [5-(6-amino-2-methyl-pyridin-3-yl)-2-methoxy-benzyl]-(4-methylamino-cyclohexyl)-amide dihydrochloride] | 1000 to 2500 nM

SMILES | EC50 (sonic hedgehog pathway [2]) | EC50 (sonic hedgehog pathway [3]) | EC50 (sonic hedgehog pathway [1])
CN[C@H]1CC[C@@H](N(Cc2cc(-c3ccc(CCl)cc3)ccc2OC)C(=O)c2sc3ccccc3c2Cl)CC1 [Compound 340, 3-Chloro-benzo[b]thiophene-2-carboxylic acid (4′-chloromethyl-4-methoxy-biphenyl-3-ylmethyl)-(4-methylamino-cyclohexyl)-amide hydrochloride] | < 50 nM | < 50 nM | < 50 nM
